Measured values published in ChEMBL document CHEMBL5154916, “Multiparameter Optimization of Naphthyridine Derivatives as Selective α5-GABAA Receptor Negative Allosteric Modulators” (J Med Chem, 2022).
pIC50, pKi: −log10 of the molar value. ≈ marks a conversion by molar mass, not a printed value. Calls of active or inactive are those of the source. The rule behind the calls is not given here.

Tests used:
[1] = target: Cytochrome P450 2C19 (Homo sapiens, UniProt P33261); assay: Inhibition of CYP2C19 (unknown origin); assay type: ADME
[2] = […] in po dosed Wistar rat assessed as NED by Irwin test; assay type: organism-based; settings: in vivo, read-out: ED
[3] = tested on: Rattus norvegicus; assay: Pro-cognitive activity in neonatal PCP-impaired social recognition Wistar rat model assessed as time spent in recognition of new juveniles at 3 mg/kg, po administered 30 min before acquisition by social recognition test; assay type: functional, organism-based
[4] = AUC (0 to infinity) in Wistar rat total plasma at 1 mg/kg, po by HPLC-MS/MS analysis; assay type: ADME, organism-based; parameters: time infinity, dose 1 mg/kg, route po
[5] = […] in po dosed Wister rat assessed as motor impairment by assessing NOAEL by spontaneous motor activity test; assay type: organism-based; settings: Wistar, in vivo
[6] = Ratio of drug level in brain to plasma in Wistar rat at 1 mg/kg, iv by HPLC-MS/MS analysis; assay type: ADME, organism-based; settings: brain and plasma, read-out: BPR
[7] = Bioavailability in Wistar rat total plasma at 1 mg/kg, iv by HPLC-MS/MS analysis; assay type: ADME, organism-based
[8] = target: Cytochrome P450 2C9 (Homo sapiens, UniProt P11712); assay: Inhibition of CYP2C9 (unknown origin); assay type: ADME
[9] = Volume of distribution in Wistar rat plasma at 1 mg/kg, iv by HPLC-MS/MS analysis; assay type: ADME, organism-based
[10] = Bioavailability in Wistar rat at 1 mg/kg,po or 1 mg/kg, iv by HPLC-MS/MS analysis; assay type: ADME, organism-based; settings: in vivo
[11] = Thermodynamic solubility of the compound at pH 7.4; assay type: physicochemical; settings: buffer, read-out: Therm_solubility
[12] = target: GABA-A receptor; alpha-5/beta-3/gamma-2 (Homo sapiens) (UniProt P18507+P28472+P31644); assay: Negative allosteric modulation activity at human recombinant alpha5beta3gamma2 GABAA receptor stably expressed in HEK293 cells assessed as modulation at alpha5 subunit at 1 uM by Patch clamp method; assay type: cell-based; settings: filed as negative allosteric modulator
[13] = target: GABA-A receptor; alpha-1/beta-3/gamma-2 (Homo sapiens) (UniProt P14867+P18507+P28472); assay: Negative allosteric modulation activity at human recombinant alpha1beta3gamma2 GABAA receptor stably expressed in HEK293 cells assessed as modulation at alpha5 subunit by Patch clamp method; assay type: cell-based; settings: filed as negative allosteric modulator
[14] = tested on: Rattus norvegicus; assay: Pro-cognitive activity in neonatal PCP-impaired social recognition Wistar rat model assessed as time spent in recognition of new juveniles at 10 mg/kg, po administered 30 min before acquisition by social recognition test; assay type: functional, organism-based
[15] = Tmax in Wistar rat total plasma at 1 mg/kg, po by HPLC-MS/MS analysis; assay type: ADME, organism-based
[16] = Ratio of drug level in brain to plasma in Wistar rat at 1 mg/kg, po or 1 mg/kg, iv by HPLC-MS/MS analysis; assay type: ADME, organism-based; settings: brain and plasma, read-out: BPR
[17] = target: T1, GABA-A receptor; alpha-5/beta-3/gamma-2 (Homo sapiens, UniProt P18507+P28472+P31644); assay: Displacement of [3H]Ro151788 from human recombinant alpha5beta3gamma2 GABAA receptor stably expressed in HEK293 cell membrane assessed as inhibition constant by radioligand binding assay; assay type: cell membranes
T1 sequence (P18507 whole entry): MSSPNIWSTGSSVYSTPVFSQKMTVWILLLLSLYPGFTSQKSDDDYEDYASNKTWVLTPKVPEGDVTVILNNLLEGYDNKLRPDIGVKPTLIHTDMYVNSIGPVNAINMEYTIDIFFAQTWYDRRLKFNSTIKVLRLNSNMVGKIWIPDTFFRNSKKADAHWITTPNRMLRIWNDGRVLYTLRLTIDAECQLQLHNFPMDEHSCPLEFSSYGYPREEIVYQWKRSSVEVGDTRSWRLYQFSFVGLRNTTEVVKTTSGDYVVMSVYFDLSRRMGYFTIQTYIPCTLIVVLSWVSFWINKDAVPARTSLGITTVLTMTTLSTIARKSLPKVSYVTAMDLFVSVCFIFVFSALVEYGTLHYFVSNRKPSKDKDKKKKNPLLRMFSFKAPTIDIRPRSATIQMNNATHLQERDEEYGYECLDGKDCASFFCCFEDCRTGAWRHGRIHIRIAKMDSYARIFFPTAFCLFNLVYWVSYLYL
T1 sequence (P28472 whole entry): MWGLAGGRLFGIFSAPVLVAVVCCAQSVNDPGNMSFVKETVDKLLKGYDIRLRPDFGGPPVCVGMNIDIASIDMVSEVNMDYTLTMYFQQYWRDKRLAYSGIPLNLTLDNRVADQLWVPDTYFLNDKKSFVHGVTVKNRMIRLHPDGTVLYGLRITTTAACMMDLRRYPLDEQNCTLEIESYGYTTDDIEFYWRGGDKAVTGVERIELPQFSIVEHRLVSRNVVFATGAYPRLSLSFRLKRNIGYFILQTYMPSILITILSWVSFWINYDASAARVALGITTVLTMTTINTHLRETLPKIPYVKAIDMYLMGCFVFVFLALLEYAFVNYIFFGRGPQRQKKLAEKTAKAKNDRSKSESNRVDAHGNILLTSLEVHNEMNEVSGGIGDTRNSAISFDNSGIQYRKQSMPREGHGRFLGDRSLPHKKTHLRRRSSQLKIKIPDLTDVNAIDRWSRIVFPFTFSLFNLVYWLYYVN
T1 sequence (P31644 whole entry): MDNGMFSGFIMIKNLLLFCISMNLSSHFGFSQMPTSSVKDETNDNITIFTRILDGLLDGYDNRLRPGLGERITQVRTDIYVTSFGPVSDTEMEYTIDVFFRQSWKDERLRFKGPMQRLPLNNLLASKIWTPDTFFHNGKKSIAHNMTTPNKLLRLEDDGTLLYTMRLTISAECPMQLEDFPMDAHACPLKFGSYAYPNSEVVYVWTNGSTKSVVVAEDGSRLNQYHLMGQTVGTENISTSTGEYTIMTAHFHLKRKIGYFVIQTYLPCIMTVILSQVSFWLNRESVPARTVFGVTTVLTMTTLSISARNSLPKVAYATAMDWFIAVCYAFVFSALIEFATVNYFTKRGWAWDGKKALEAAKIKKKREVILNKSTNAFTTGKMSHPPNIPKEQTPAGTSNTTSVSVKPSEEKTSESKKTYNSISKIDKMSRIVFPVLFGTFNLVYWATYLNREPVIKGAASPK

Sequence of Cytochrome P450 2C19 (P33261 whole entry): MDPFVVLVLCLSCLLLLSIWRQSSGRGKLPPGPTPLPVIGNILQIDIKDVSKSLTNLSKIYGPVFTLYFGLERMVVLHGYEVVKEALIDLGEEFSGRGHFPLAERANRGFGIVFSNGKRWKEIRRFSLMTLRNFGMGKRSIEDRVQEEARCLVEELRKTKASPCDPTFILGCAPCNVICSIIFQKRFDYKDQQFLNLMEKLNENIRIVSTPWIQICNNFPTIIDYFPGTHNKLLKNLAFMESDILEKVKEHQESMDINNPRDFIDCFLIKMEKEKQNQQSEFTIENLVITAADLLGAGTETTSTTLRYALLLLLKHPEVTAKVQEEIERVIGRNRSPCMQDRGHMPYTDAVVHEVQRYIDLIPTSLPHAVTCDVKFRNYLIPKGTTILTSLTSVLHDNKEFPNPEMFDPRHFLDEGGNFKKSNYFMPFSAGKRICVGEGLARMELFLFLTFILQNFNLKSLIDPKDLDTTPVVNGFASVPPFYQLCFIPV
Sequence of Cytochrome P450 2C9 (P11712 whole entry): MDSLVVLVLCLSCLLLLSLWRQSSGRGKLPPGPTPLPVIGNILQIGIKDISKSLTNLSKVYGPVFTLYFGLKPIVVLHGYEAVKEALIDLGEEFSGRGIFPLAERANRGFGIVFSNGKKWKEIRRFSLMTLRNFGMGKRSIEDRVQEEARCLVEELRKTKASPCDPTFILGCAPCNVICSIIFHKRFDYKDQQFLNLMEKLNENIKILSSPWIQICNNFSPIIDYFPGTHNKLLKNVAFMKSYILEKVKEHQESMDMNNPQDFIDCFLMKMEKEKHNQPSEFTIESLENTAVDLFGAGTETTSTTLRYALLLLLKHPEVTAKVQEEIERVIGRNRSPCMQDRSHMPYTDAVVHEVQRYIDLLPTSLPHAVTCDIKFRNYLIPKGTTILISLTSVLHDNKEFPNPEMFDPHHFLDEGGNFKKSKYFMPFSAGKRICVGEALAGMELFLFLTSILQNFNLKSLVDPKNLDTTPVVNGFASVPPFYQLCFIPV

- pIC50 [1]: 4.84
- AUC(0-inf) [4]: 146 ng·h/mL
- Kp [6]: 0.54
- bioavailability [7]: 35.8%
- pIC50 [8]: < 4.30
- Vd [9]: 1.9 L/kg
- bioavailability [10]: 35.8%
- solubility thermodynamic [11]: 0.081 µM (≈ 0.0372 µg/mL)
- Activity [12]: -24%
- Activity [13]: -41%
- Tmax [15]: 30 min
- Kp [16]: 0.54
- pKi [17]: 8.39
Structure (SMILES): Cc1onc(-c2ccc(F)cc2)c1COc1ccc2c(n1)CCN(C(=O)CS(C)(=O)=O)C2
- NOAEL [2]: ≥ 300 mg/kg
- Activity [3]: Active
- NOAEL [5]: ≥ 100 mg/kg
- Activity [14]: Active
